Data published in US11439713B2, “Method for creating a renal injury model to screen molecules for the treatment of renal injury” (BAYER AKTIENGESELLSCHAFT, priority 2017, dated 2022).
“Also recorded” adds a separate entry of the source.

Assays:
Format in all cases: in vivo
[1] = test system: C57Bl/6 mice; assay: AGISHA model with AngII as injury inducer (ACR in urine); conditions: for ACR in urine collected for 4 hours after AngII bolus injections: vs NaCl control group; for ACR in urine collected for 4 hours after first AngII bolus injections, experimental day 1: vs NaCl group
Excerpt: Five groups with 10-12 mice per group (C57Bl/6, Charles River Laboratories, 6-7 weeks old) were set for one experiment. After delivery, animals remained in a temperature- and light-controlled room with standardized mouse chow and water ad libitum for a one week acclimatization period, following guidelines of local governmental institutions (LANUV Germany). The groups were divided as follows (see FIG. 1): • 1. Control group without AngII bolus injection, but with control saline and additional (oral) administration of drug vehicle (10% ethanol, 40% solutol, 50% water or saline). • 2. AngII group, treated with AngII in normal saline, and drug vehicle. AngII administration occurred in two bolus injections (i.v.+s.c.) of 10 μg (5 μg i.v.+5 μg s.c.), 16 μg (8 μg i.v.+8 μg s.c.) and 20 μg (10 μg i.v.+10 μg s.c.) per mouse, where the first bolus was injected intravenously and the second bolus subcutaneously. The drug vehicle was administered orally.
3. Candidate groups 3 and 4: AngII injection and additional treatment with the investigated drug/drugs. For substance testing, drugs or appropriated vehicles were administered orally, via i.v., s.c., or i.p. Administration occurred prior to or after AngII-injection. For example, investigated drug/drugs were given orally 30 minutes before the induction of the injury. • 4. Group 5 is the positive control group Animals were injected with AngII and treated orally with Losartan 30 mg/kg. Losartan is an AngII receptor blocker AT1 (Pieter B M et al, Pharma. Rev., 1993, Kang P M et al, Progress in Cardiology, 1994).
After AngII injection animals were placed in metabolic cages (Technoplast, Italy) for urine collection for up to 4 hours. At the end of the experiment the urine was analyzed to quantify the ACR. More specifically, the collected urine was analyzed using an automatic analyzer for urinary albumin as well as urinary creatinine (Coban® Integra 400, Roche, Basel, SUI) or using the Mouse albumin ELISA kit (ABCAM, Cambridge, UK). […] The AGISHA model was performed in 3 identical cycles with a one-week break for recovery.
Negative and positive control experiment. To confirm the findings shown in FIG. 2-4, the mode of action in AGISHA was investigated. In the following experiment, three of the animal groups were pre-treated with three different drugs by oral application 30 minutes before administration of injury inducer (see FIG. 5). • 1) Enalapril 10 mg/kg, an angiotensin-converting enzyme (ACE) inhibitor, is standard of care for high blood pressure. It was used as positive modulator control 1 of the renin-angiotensin system (RAS) in the AGISHA model. • 2) Losartan potassium, 30 mg/kg, angiotensin II type I receptor (AT1) antagonist, standard of care for high blood pressure (Kang et al, 1994; Sica D A et al, Clin Parmacokinet., 2005) was used as positive modulator control 2 of the RAS system in the AGISHA model. • 3) Tivozanib, 3 mg/kg, vascular endothelial grow factor receptor tyrosine kinase inhibitor (Campas C et al, Drugs Fut., 2009) was used as negative modulator of the RAS system during AGISHA model. […]
The experiment was performed as described in example 5, except that the sGC stimulator 5-cyclopropyl-2-[1-(2-fluorobenzyl)-1H-pyrazolo[3,4-b]pyridin-3-yl]pyrimidin-4-amine was used for treatment. […] Losartan (30 mg/kg) was used as positive control.

[2] = test system: mice; assay: GFR-based model with AVP and Sinestrin-FITC; conditions: pre-treatment with Losartan 30 mg/kg; AVP 35 μg
Method: A similar setup (FIG. 23) was used with AVP (Sigma-Aldrich, Mo.) at a dose of 35 μg, i.e. using a first bolus with 15 μg AVP, injected i.v. in combination with Sinestrin-FITC 150 mg/kg (50 ul+50 ul) and using a second bolus of 20 μg AVP, 100 uL, injected i.v. As before GFR, was decreased by AVP compared with the control group.

[3] = test system: mice; assay: GFR-based model with AngII and Sinestrin-FITC (GFR acute modulation); conditions: for GFR 2 hrs after AngII bolus injection: vs control group
Excerpt: Acute GFR modulation is a relevant phenomenon in the field of nephrology (Fergusan and […], Clin. Chem., 58(4), 2012, p. 680-689). GFR is the major readout parameter for chronic kidney disease (CKD) stage assessment (Lopez-Giacoman and Madero, World J Nephrol. 4(1), 2015, 57-73). The GFR is also a very stable and robust physiological parameter that is subject to positive and negative feedback regulation. The following protocol and experimental setup (FIG. 21) was established to model acute GFR modulation. 1. Control group without AngII bolus injection, but with control saline (0.9%)+[…] 150 mg/kg and additional s c administration of 0.9% NaCl (100 μl+100 μl) 2. AngII group, treated with AngII in two bolus injections: First bolus of 20 μg/mouse of AngII in normal saline administered in combination with […] 150 mg/kg, 50 μl+50 μl, injected via tail vein. Second bolus injected s.c. comprising 20 μg AngII, 100 μl. 3. Losartan group was treated orally with 30 mg/kg of Losartan Potassium, 30 min prior to the AngII injury. AngII injury occurred in two bolus injections as described for the AngII group (total 40 μg). 1. Control group without AngII bolus injection, but with control saline (0.9%)+[…] 150 mg/kg and additional s.c. administration of 0.9% NaCl (100 μl+100 μl) 2. AngII group, treated with AngII in two bolus injections: First bolus of 20 μg/mouse of AngII in normal saline administered in combination with […] 150 mg/kg, 50 μl+50 μl, injected via tail vein. Second bolus injected s.c. comprising 30 μg AngII, 100 μl. 3. Losartan group was treated orally with 30 mg/kg of Losartan Potassium, 30 min prior to the AngII injury. AngII injury occurred in two bolus injections as described for the AngII group (total 50 μg). For substance testing, animals were pre-treated with the respective drugs or vehicles 30 min before AngII-injection, via oral gavage, s.c, i.p., or tail vein injection. Subsequently, […] mix bolus was administered to the animals with the tracer (FIG. 21).

[4] = test system: C57Bl/6/J male mice; assay: GFBI test model with AngII (transcutaneous fluorescence of Ficoll-FITC); conditions: for Half-life of the fluorescent molecule in the blood 2 h after AngII bolus injection: vs control
Method: After delivery, C57Bl/6/J male mice remained in a temperature- and light-controlled room with standardized mouse chow and water ad libitum for a one week acclimatization period, following guidelines of local governmental institutions (LANUV Germany). C57Bl/6/J mice (6-7 weeks) received an intravenous mixture of FITC-FICOLL 70 kDa (Sigma) and 10 μg AngII mix 100 μL, followed by a 10 μg (100 μL) subcutaneous AngII bolus as described in example 1. The groups were divided as follows, see FIG. 17:
1. Control group without AngII bolus injection, but with control saline 0.9%+Ficoll-FITC 150 mg/kg and additional s c administration of a bolus of NaCl 0.9%.
2. AngII group, treated with AngII in two bolus injections (10 μg/mouse of AngII+Ficoll-FITC, 150 mg/kg, both dissolved in 0.9% NaCl, first bolus injected i.v. via tail vein (5 μg AngII) and a second subcutaneous bolus injection (5 μg AngII).
3. AngII group, treated with AngII in two bolus injections (20 μg/mouse total AngII+Ficoll-FITC, 150 mg/kg 150 mg/kg, both dissolved in 0.9% NaCl, first bolus injected i.v. via tail vein (10 μg AngII) and a second subcutaneous bolus injection (10 μg AngII).
TF of the FICOLL-FITC was detected via the transcutaneous method developed by MediBeacon Inc. (MediBeacon Inc., Mo., USA). In brief: all experimental animals were shaved with standard mask anesthesia 1 h before the determination of TF for the FICOLL-FITC Immediately after the injury induction the portable transcutaneous measurement device was placed on the left dorsal back side of the animal for 2 hours. The results were analyzed with the MediBeacon Inc. software. […] The decay of the Ficoll-FITC dye was visualized as a flat line, with a half-life of ca. 396 minutes.

[5] = oral 30 minutes before AngII 10 μg i.v.+10 μg s.c., Enalapril 10 mg/kg, Losartan potassium 30 mg/kg, Tivozanib 3 mg/kg, FIG. 6
[6] = pre-treatment orally, AngII 10 μg i.v.+10 μg s.c., OGT 2115 40 mg/kg, Losartan Potassium 30 mg/kg, FIG. 10

## O=C(O)CCCCN(CCc1cc(F)ccc1OCc1ccc(-c2ccc(C(F)(F)F)cc2)cc1)Cc1ccc(C(=O)O)cc1 [4-({(4-carboxybutyl)[2-(5-fluoro-2-{[4′-(trifluoromethyl)biphenyl-4-yl]methoxy}phenyl)ethyl]amino}methyl)benzoic acid]
[1]; 3 mg/kg orally prior to AngII 10 μg i.v.+10 μg s.c.
  Reduction of ACR compared with the control group: 71%
[1]; 3 mg/kg orally prior to AngII 10 μg i.v.+10 μg s.c., urine 4 hours
  AngII induced ACR, mean±SD: 35 ± 26 µg/mg

## CCOC(=O)[C@H](CCc1ccccc1)N[C@@H](C)C(=O)N1CCC[C@H]1C(=O)O [Enalapril]
[1]; [5]
  Effect on ACR induced by AngII: significantly reduced

## COc1cc2nccc(Oc3ccc(NC(=O)Nc4cc(C)on4)c(Cl)c3)c2cc1OC [Tivozanib]
[1]; [5]
  Effect on ACR induced by AngII: no effect on ACR induced by AngII

## CCCCc1nc(Cl)c(CO)n1Cc1ccc(-c2ccccc2-c2nn[nH]n2)cc1 [Losartan]
[2]
  Effect on AVP induced loss of GFR: did not restore the normal GFR; also recorded: did not restore or prevent the AVP induced loss of GFR
[3]; Losartan Potassium 30 mg/kg orally 30 min prior to AngII total 40 μg
  Effect on AngII induced loss of GFR: AngII bolus had no effect on the GFR; also recorded: able to completely reverse the effect
[3]; Losartan Potassium 30 mg/kg orally 30 min prior to AngII total 50 μg
  Effect on AngII induced loss of GFR: restored the GFR; also recorded: significant recovery of AngII induced loss of GFR
[1]; Losartan 30 mg/kg orally, positive control, AngII 10 μg i.v.+10 μg s.c.
  Reduction of AngII induced ACR: around 90%
[1]; Losartan 30 mg/kg orally, FIG. 2 experiment
  Effect on AngII-induced ACR induction: AngII bolus had no effect on ACR; also recorded: prevents AngII-induced ACR induction
[1]; [5]
  Effect on ACR induced by AngII: highly significant reduction of AngII induced injury
[1]; oral 30 minutes before AngII 10 μg i.v.+10 μg s.c., Enalapril 10 mg/kg, Losartan potassium 30 mg/kg, Tivozanib 3 mg/kg, FIG. 6, listed as Losartan potassium
  Effect on ACR induced by AngII: strongest effect
[1]; [6]
  Effect on ACR induced by AngII: highly significant reduction of AngII induced injury

## O=C(O)Cc1ccc2oc(-c3ccc(NC(=O)/C=C/c4ccc(Br)cc4)c(F)c3)nc2c1 [OGT2115]
[1]; [6]
  Effect on ACR induced by AngII: significantly reduced

## Asp-Arg-Val-Tyr-Ile-His-Pro-Phe (DRVYIHPF; printed: Asp-Arg-Val-Tyr-Ile-His-Pro-Phe) [AngII, human angiotensin II peptide hormone, used as renal injury inducer]
[3]; total 40 μg AngII (20 μg i.v.+20 μg s.c.)
  GFR 2 hrs after AngII bolus injection: decreased but not significantly decreased; also recorded: decrease in GFR
[3]; total 50 μg AngII (20 μg i.v.+30 μg s.c.)
  GFR 2 hrs after AngII bolus injection: highly significant reduction of the GFR; also recorded: significantly reduced
[1]; AngII 8 μg i.v.+8 μg s.c.
  ACR in urine collected for 4 hours after AngII bolus injections: significant induction of ACR
[1]; AngII 10 μg i.v.+10 μg s.c.
  ACR in urine collected for 4 hours after AngII bolus injections: significant induction of ACR; also recorded: significant increase of ACR
[1]; cross AGISHA, AngII 5 μg dose (group 1) and 10 μg dose (group 2)
  ACR on third experimental day after changed order of stimuli: dose dependent increase of injury
[1]; cross AGISHA, AngII 5 μg i.v.+5 μg s.c.
  ACR in urine collected for 4 hours after first AngII bolus injections, experimental day 1: significantly increased
[1]; cross AGISHA, AngII 10 μg i.v.+10 μg s.c.
  ACR in urine collected for 4 hours after first AngII bolus injections, experimental day 1: significantly increased
[1]; cross AGISHA, after AngII 5 μg or 10 μg dose
  ACR on day 2, 24 hours after first induction of acute glomerular injury: For none of the groups the analysis shows a detectable ACR
[4]; AngII 10 μg
  Half-life of the fluorescent molecule in the blood 2 h after AngII bolus injection: decrease in half-life of the fluorescent molecule was significant
[4]; AngII 20 μg
  Half-life of the fluorescent molecule in the blood 2 h after AngII bolus injection: decrease in half-life of the fluorescent molecule was significant
[4]; animals treated with AngII, control (0.9% NaCl) ca. 396 minutes
  Half-life of FICOLL-FITC transcutaneous fluorescence, representative curve: ca. 180 min
